Laboratory results from patent publication US20160002247A1, “8-SUBSTITUTED IMIDAZOPYRIMIDINONE DERIVATIVE HAVING AUTOTAXIN INHIBITORY ACTIVITY” (THE UNIVERSITY OF TOKYO, priority 2013, published 2016).

Target: T1, Human autotaxin enzyme (Homo sapiens, UniProt Q13822)
T1 construct: purchased R&D System
Assay: Evaluation of autotaxin inhibitor, Method B (Test Example 2): TG-mTMP fluorescence
Assay type: biochemical
Details: Assay Method B (Test Example 2), human autotaxin; read-out: Inhibitory Activity (autotaxin enzyme inhibitory activity, IC50 class)
Description: (Method B) Evaluation of Autotaxin Inhibitor
Solution A containing 25 mM Tris-HCl buffer (pH7.5), 100 mM NaCl, 5 mM MgCl2 and 0.1% BSA was prepared. Human autotaxin enzyme (purchased from R&D System) was diluted with Solution A, and 5 μL of which was added to a solution of test compound in DMSO. Furthermore, 5 μl of 0.5 μM TG-mTMP in Solution A was added and allowed to react at room temperature for 2 hours. 5 μl of 150 mM EDTA in Solution A was added to quench the reaction, and the fluorescent dye TokyoGreen, which was produced by the reaction, was detected. The fluorescence was detected using ViewLux (PerkinElmer, Inc.) with an excitation wavelength of 480 nm and a fluorescence wavelength of 540 nm.

Compound	IC50 [nM]
CCC(CC)Cn1c(C)cc(=O)n2cc(-c3ccc(Cl)cc3)nc12 [Compound 87]	10 to 100
Cc1cc(=O)n2cc(-c3ccc(Cl)cc3)nc2n1Cc1ccc(-c2ccccc2)cc1 [Compound 88]	100 to 1000
Cc1cc(=O)n2cc(-c3ccc(Cl)cc3)nc2n1Cc1ccc(OCCCN(C)C)cc1 [Compound 89]	< 10
Cc1cc(=O)n2cc(-c3ccc(Cl)cc3)nc2n1Cc1ccc(Cl)cc1F [Compound 90]	10 to 100
Cc1cc(=O)n2cc(-c3ccc(Cl)cc3)nc2n1Cc1ccc(-c2ncccn2)cc1 [Compound 91]	10 to 100
Cc1cncc(Oc2ccc(Cn3c(C)cc(=O)n4cc(-c5ccc(Cl)cc5)nc34)cc2)n1 [Compound 92]	10 to 100
Cc1cc(=O)n2cc(-c3ccc(Cl)cc3)nc2n1Cc1ccc(Oc2ccccc2)cc1 [Compound 93]	> 1000
Cc1cc(=O)n2cc(-c3ccc(Cl)cc3)nc2n1CCCCF [Compound 94]	10 to 100
Cc1cc(=O)n2cc(-c3ccc(Cl)cc3)nc2n1Cc1ccc(C(C)C)cc1 [Compound 95]	10 to 100
Cc1cc(=O)n2cc(-c3ccc(Cl)cc3)nc2n1Cc1cccc(OCC(=O)O)c1 [Compound 96]	100 to 1000
Cc1cc(=O)n2cc(-c3ccc(Cl)cc3)nc2n1Cc1ccc(Br)cc1F [Compound 97]	10 to 100
Cc1cc(=O)n2cc(-c3ccc(Cl)cc3)nc2n1Cc1ccc(C(=O)O)cc1 [Compound 99]	100 to 1000
Cc1cc(=O)n2cc(-c3ccc(Cl)cc3)nc2n1C(C)c1cccc(F)c1 (stereo not shown) [Compound 100]	10 to 100
Cc1cc(=O)n2cc(-c3ccc(Cl)cc3)nc2n1Cc1ccc(F)cc1F [Compound 101]	10 to 100
Cc1cc(=O)n2cc(-c3ccc(Cl)cc3)nc2n1Cc1ccc2ccccc2c1 [Compound 102]	100 to 1000
COC(=O)c1ccc(Cn2c(C)cc(=O)n3cc(-c4ccc(Cl)cc4)nc23)cc1 [Compound 103]	10 to 100
Cc1cc(=O)n2cc(-c3ccc(Cl)cc3)nc2n1Cc1ccc(Cl)c(Cl)c1 [Compound 104]	10 to 100
Cc1cc(=O)n2cc(-c3ccc(Cl)cc3)nc2n1Cc1ccc(S(C)(=O)=O)cc1 [Compound 105]	10 to 100
Cc1cc(=O)n2cc(-c3ccc(Cl)cc3)nc2n1CCCC#N [Compound 106]	10 to 100
Cc1cc(=O)n2cc(-c3ccc(Cl)cc3)nc2n1CC1CCCO1 (stereo not shown) [Compound 107]	100 to 1000
Cc1cc(=O)n2cc(-c3ccc(Cl)cc3)nc2n1C(C)c1cccc(C(F)(F)F)c1 (stereo not shown) [Compound 108]	10 to 100
Cc1cc(=O)n2cc(-c3ccc(Cl)cc3)nc2n1Cc1ccncc1 [Compound 109]	100 to 1000
Cc1cc(=O)n2cc(-c3ccc(Cl)cc3)nc2n1Cc1ccc(C(N)=O)cc1 [Compound 110]	10 to 100
Cc1cc(=O)n2cc(-c3ccc(Cl)cc3)nc2n1Cc1ccc(C(=O)c2ccccc2)cc1 [Compound 111]	100 to 1000
COC(=O)Cc1ccc(Cn2c(C)cc(=O)n3cc(-c4ccc(Cl)cc4)nc23)cc1 [Compound 112]	10 to 100

Compound	IC50 [nM]
Cc1cc(=O)n2cc(-c3ccc(Cl)cc3)nc2n1Cc1ccc(S(=O)(=O)C(F)F)cc1 [Compound 113]	10 to 100
Cc1cc(=O)n2cc(-c3ccc(Cl)cc3)nc2n1Cc1ccccn1 [Compound 114]	10 to 100
Cc1cc(=O)n2cc(-c3ccc(Cl)cc3)nc2n1Cc1cccc(C(F)(F)F)c1 [Compound 115]	10 to 100
Cc1cc(=O)n2cc(-c3ccc(Cl)cc3)nc2n1Cc1ccc(C(F)(F)F)cc1 [Compound 116]	100 to 1000
Cc1cc(=O)n2cc(-c3ccc(Cl)cc3)nc2n1Cc1cccnc1 [Compound 117]	10 to 100
Cc1cc(=O)n2cc(-c3ccc(Cl)cc3)nc2n1CC1CCOC1 (stereo not shown) [Compound 118]	100 to 1000
Cc1cc(=O)n2cc(-c3ccc(Cl)cc3)nc2n1Cc1ccc(COc2ccccc2)cc1 [Compound 120]	> 1000
Cc1cc(=O)n2cc(-c3ccc(Cl)cc3)nc2n1Cc1cccc(F)c1 [Compound 121]	10 to 100
Cc1cc(=O)n2cc(-c3ccc(Cl)cc3)nc2n1Cc1ccc(OC(F)(F)F)cc1 [Compound 122]	100 to 1000
Cc1cc(=O)n2cc(-c3ccc(Cl)cc3)nc2n1Cc1ccc(C(C)(C)C)cc1 [Compound 123]	100 to 1000
COCCCCn1c(C)cc(=O)n2cc(-c3ccc(Cl)cc3)nc12 [Compound 124]	10 to 100
CCCc1cn2c(=O)ccn(CCc3ccc(Cl)cc3)c2n1 [Compound 128]	> 1000
CCCc1cn2c(=O)ccn(CCCc3ccc(Cl)cc3)c2n1 [Compound 129]	> 1000
CCCCCn1c(C)cc(=O)n2cc(-c3ccccc3)nc12 [Compound 138]	100 to 1000
CCCCCn1c(C)cc(=O)n2cc(C3CCCCC3)nc12 [Compound 139]	100 to 1000
CCCCCn1c(C)cc(=O)n2cc(-c3coc4ccccc34)nc12 [Compound 140]	100 to 1000
CCCCCn1c(C)cc(=O)n2cc(-c3ccc(Oc4ccccc4)cc3)nc12 [Compound 141]	10 to 100
CCCCCn1c(C)cc(=O)n2cc(-c3cc4ccccc4s3)nc12 [Compound 142]	10 to 100
CCCCCn1c(C)cc(=O)n2cc(-c3cc4ccccc4o3)nc12 [Compound 143]	100 to 1000
CCCCCn1c(C)cc(=O)n2cc(-c3ccsc3)nc12 [Compound 144]	100 to 1000
CCCCCn1c(C)cc(=O)n2cc(-c3ccc(C4CCCCC4)cc3)nc12 [Compound 145]	> 1000
CCCCCn1c(C)cc(=O)n2cc(-c3ccc4occc4c3)nc12 [Compound 146]	100 to 1000
CCCCCn1c(C)cc(=O)n2cc(-c3cccc(Cl)c3)nc12 [Compound 147]	> 1000
CCCCCn1c(C)cc(=O)n2cc(-c3ccc(N4CCCC4=O)cc3)nc12 [Compound 148]	> 1000
CCCCCn1c(C)cc(=O)n2cc(-c3ccc4c(c3)CCO4)nc12 [Compound 149]	100 to 1000

Compound	IC50 [nM]
CCCCCn1c(C)cc(=O)n2cc(-c3ccc4c(c3)CCC4)nc12 [Compound 150]	100 to 1000
CCCCCn1c(C)cc(=O)n2cc(-c3ccc(C(=O)OCC)cc3)nc12 [Compound 151]	> 1000
CCCCCn1c(C)cc(=O)n2cc(-c3ccc(OC)cc3)nc12 [Compound 152]	10 to 100
CCCCCn1c(C)cc(=O)n2cc(-c3ccc4ccccc4c3)nc12 [Compound 153]	> 1000
CCCCCn1c(C)cc(=O)n2cc(-c3ccc(C)cc3C)nc12 [Compound 154]	10 to 100
CCCCCn1c(C)cc(=O)n2cc(-c3ccc(OC(F)F)cc3)nc12 [Compound 155]	10 to 100
CCCCCn1c(C)cc(=O)n2cc(-c3ccc(OC(F)(F)F)cc3)nc12 [Compound 156]	< 10
CCCCCn1c(C)cc(=O)n2cc(-c3ccc(C#N)cc3)nc12 [Compound 157]	< 10
CCCCCn1c(C)cc(=O)n2cc(-c3ccc(Cl)cc3Cl)nc12 [Compound 158]	10 to 100
CCCCCn1c(C)cc(=O)n2cc(-c3ccc(N(CC)CC)cc3)nc12 [Compound 159]	> 1000
CCCCCn1c(C)cc(=O)n2cc(-c3ccc4c(c3)OCCCO4)nc12 [Compound 160]	100 to 1000
CCCCCn1c(C)cc(=O)n2cc(-c3ccc(C(F)(F)F)cc3)nc12 [Compound 161]	< 10
CCCCCn1c(C)cc(=O)n2cc(-c3ccc(F)cc3F)nc12 [Compound 162]	100 to 1000
CCCCCn1c(C)cc(=O)n2cc(-c3ccccc3F)nc12 [Compound 163]	100 to 1000
CCCCCn1c(C)cc(=O)n2c(C=O)c(-c3ccc(Cl)cc3)nc12 [Compound 167, 2-(4-chlorophenyl)-7-methyl-5-oxo-8-pentyl-5,8-dihydroimidazo[1,2-a]pyrimidine-3-carbaldehyde]	100 to 1000
CCCCCn1c(C)cc(=O)n2c(CO)c(-c3ccc(Cl)cc3)nc12 [Compound 168, 2-(4-chlorophenyl)-3-hydroxymethyl-7-methyl-8-pentylimidazo[1,2-a]pyrimidin-5(8H)-one]	100 to 1000
CCCCCn1c(C)cc(=O)n2c(C)c(-c3ccc(Br)cc3)nc12 [Compound 169]	10 to 100
CCCCCn1c(C)cc(=O)n2c(C)c(-c3ccc(Cl)cc3)nc12 [Compound 170]	10 to 100
CCCCCn1c(C)cc(=O)n2c(Br)c(-c3ccc(Cl)cc3)nc12 [Compound 171]	10 to 100
CCCCCn1c(C)cc(=O)n2c(CN)c(-c3ccc(Cl)cc3)nc12 [Compound 172]	> 1000
CCCCCn1c(C)cc(=O)n2c(CN(C)C)c(-c3ccc(Cl)cc3)nc12 [Compound 173]	> 1000
CCCCCn1c(Cl)cc(=O)n2cc(-c3ccc(Cl)cc3)nc12 [Compound 176, 7-chloro-2-(4-chlorophenyl)-8-pentylimidazo[1,2-a]pyrimidin-5(8H)-one]	10 to 100
CCCCCn1c(NCc2ccc(C(=O)OC)cc2)cc(=O)n2cc(-c3ccc(Cl)cc3)nc12 [Compound 177, methyl 4-((2-(4-chlorophenyl)-5-oxo-8-pentyl-5,8-dihydroimidazo[1,2-a]pyrimidin-7-ylamino)methyl)benzoate]	10 to 100

Same assay, conditions: Assay Method: Method B (Test Example 2); read-out: Inhibitory Activity (Enzyme Inhibitory Activity, IC50)

Compound	IC50 [nM]
CCCC(Cn1c(C)cc(=O)n2cc(-c3ccc(Cl)cc3)nc12)OS(C)(=O)=O (stereo not shown) [Compound 84]	< 10
Cc1cc(=O)n2cc(-c3ccc(Cl)cc3)nc2n1Cc1ccc(OCCN2CCCC2)cc1 [Compound 85]	< 10
CCOC(=O)c1ccc(Cn2c(C)cc(=O)n3cc(-c4ccc(Cl)cc4)nc23)cc1 [Compound 86]	100 to 1000
